For data set [1], the system named is Crb1^rd8/rd8 mouse suffering from fundus degenerative retinopathy. Description: Intragastric administration therapy of Crb1^rd8/rd8 mouse suffering from fundus degenerative retinopathy; count of fundus light spots. As to conditions: for Eyes with slight decrease of crystalline lens transparency (fundus light spots cannot be observed clearly): 0.3 g/kg intragastric; for Change of spots 4 weeks after drug administration / Change of spots 2 weeks after drug administration: change of number of fundus light spots, Crb1^rd8/rd8 mouse, mean ± s; for Change of spots 4 weeks after drug administration: 0.3 g/kg intragastric once every other day for 4 weeks, P = 0.0005 vs model control group; for Change of spots 2 weeks after drug administration: 0.3 g/kg intragastric once every other day, P = 0.1518 vs model control group. It is filed as in vivo. The protocol: The mouse is anaesthetized and pupils are dilated. A cornea remains moist by applying hydroxypropyl methylcellulose eye drops regularly. A mouse fundus photo is obtained by using a Micron IV mouse fundus camera (Phoenix Research Laboratories, Inc., Pleasanton, CA, USA).
When a sample for test is prepared, 4 mL of castor oil which is already autoclaved is measured, 1.2 g of compound 6 powder is weighted, 1-2 mL of castor oil is added, full grinding is performed, a ground drug and residual castor oil are all transferred to a 50 mL tube with 36 mL ultrapure water to be oscillated and uniformly mixed for still standing overnight, so a compound 6 suspension with a concentration being 30 mg/mL is prepared, and the prepared drug liquid is labeled, saved at a normal temperature and used up within a month.
• Species and strains: Crb1^rd8/rd8 mouse • Grade: SPF grade • Quantity and gender: 18 mice, either gender • Weight range: 16-24 g • Supply unit: Gempharmatech Co., Ltd.
When drug administration starts, a healthy one-month-old Crb1^rd8/rd8 mouse is selected for an experiment.
Animals are hierarchically divided according to weights and then randomly divided into a model control group and a compound 6 group.
Drug administration route and method: intragastric administration, 10.0 mL/kg weight
Drug administration frequency and time limit: once every other day, for 4 weeks
Dosage of the compound 6 is 0.3 g/kg weight for the mouse and is converted according to previous clinical medication.
One-month-old Crb1^rd8/rd8 mice are randomly divided into the model control group and the compound 6 drug administration group. A solvent or a compound 6 drug is administered intragastrically to the animals, a dosage of the compound 6 is 0.3 g/kg, once every other day, continuous drug administration for 4 weeks. The number of fundus light slots 2 weeks and 4 weeks after the mouse is administered intragastrically is recorded for analysis and comparison.
A change of the number of fundus light spots of the mice at each time point after drug administration is used as a parameter, and SPSS software is used for the statistic analysis. A statistical result is represented by X+s; and an inspection level=0.05, and an average of experiment data and statistically processed data remain 2 decimal places.

For data set [2], the system named is drusen-like lesion in retinal tissue of a macaque. As to conditions: administered to vitreous humor; cited from earlier work.

For `CCCCCCCCOC(=O)c1cc(O)c(O)c(O)c1` [Compound 6, octyl gallate], the “Inhibition of fundus degenerative retinopathy” value in data set [1] (Crb1^rd8/rd8 mice, dosage of 0.3 g/kg) was “effectively inhibit”. Moreover, the “Eyes with slight decrease of crystalline lens transparency (fundus light spots cannot be observed clearly)” value is 2/18 in data set [1] (Week 2 of the experiment, attributed to anesthesia, correlation with compound not excluded) and 1/18 in data set [1] (Week 4 of the experiment, 1/18 eye also in model control group). For the same compound, the “Change of spots 4 weeks after drug administration” value in data set [1] is recorded as −3.63 ± 4.06; in data set [1] (listed as compound 6), −3.63±4.06. Moreover, the “Change of spots 2 weeks after drug administration” value amounted to 1.31 ± 3.18 in data set [1] and 1.31±3.18 in data set [1] (listed as compound 6).

Regarding `CN[C@H](CC(C)C)C(=O)N[C@H]1C(=O)N[C@@H](CC(N)=O)C(=O)N[C@H]2C(=O)N[C@H]3C(=O)N[C@H](C(=O)N[C@H](C(=O)O)c4cc(O)cc(O)c4-c4cc3ccc4O)[C@H](O)c3ccc(c(Cl)c3)Oc3cc2cc(c3O[C@@H]2O[C@H](CO)[C@@H](O)[C@H](O)[C@H]2O[C@H]2C[C@](C)(N)[C@H](O)[C@H](C)O2)Oc2ccc(cc2Cl)[C@H]1O` [vancomycin], in data set [2], the “Size of the drusen-like lesion in retinal tissue compared with a control” value is listed as “reduce a size of the drusen-like lesion”.

These data come from patent US20250000837A1, “METHOD FOR TREATING RETINAL DEGENERATION” (SMILEBIOTEK ZHUHAI LIMITED, priority 2021, published 2025).
